Results: patent US11109593B2, “Isoxazolin-5-one derivative and herbicide containing same as active ingredient” (HOKKO CHEMICAL INDUSTRY CO., LTD., priority 2017, dated 2021)

What was measured:
Format in all cases: in vivo
[1] = system: Echinochloa crus-galli; test: Test Example 3: herbicidal effect test by treatment of dry field farming soil (one day after seeding); conditions: 120 g/10a active ingredient, evaluated 14 days after treatment
Method in brief: (§1)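 Weeds were seeded into the upper soil layer of alluvial field soil and, one day afterwards, the soil surface was sprayed with water-diluted emulsion delivering 120 g active ingredient per 10 ares. Mean plant dry weight relative to untreated pots after 14 days gave the herbicidal rate, tested in duplicate.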

[2] = system: southern crabgrass; test: as above; conditions: 120 g/10a active ingredient, evaluated 14 days after treatment
Method in brief: as §1

[3] = system: Amaranthus viridis; test: as above; conditions: 120 g/10a active ingredient, evaluated 14 days after treatment
Method in brief: as §1

[4] = system: Chenopodium album; test: as above; conditions: 120 g/10a active ingredient, evaluated 14 days after treatment
Method in brief: as §1

[5] = system: Echinochloa crus-galli; test: Test Example 4: herbicidal effect test by treatment of leave and stem in dry field farming (seven days after seeding); conditions: 120 g/10a active ingredient; emulsion sprayed seven days after seeding; evaluated 14 days after treatment
Method in brief: (§2)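 Duplicate pots were scored 14 days post-spray by dry weight, herbicidal rate = {1 − treated/untreated average dry weight} × 100. The water-diluted emulsion, equivalent to 120 g active ingredient per 10 ares in 100 L, was applied seven days after sowing 20 seeds each into the upper 1 cm of alluvial soil.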

[6] = system: southern crabgrass; test: as above; conditions: 120 g/10a active ingredient; emulsion sprayed seven days after seeding; evaluated 14 days after treatment
Method in brief: as §2

[7] = system: Amaranthus viridis; test: as above; conditions: 120 g/10a active ingredient; emulsion sprayed seven days after seeding; evaluated 14 days after treatment
Method in brief: as §2

[8] = system: Chenopodium album; test: as above; conditions: 120 g/10a active ingredient; emulsion sprayed seven days after seeding; evaluated 14 days after treatment
Method in brief: as §2

[9] = system: Scirpus juncoides; test: Test Example 2: herbicidal effect test by treatment during growing period in paddy rice cultivation (seven days after seeding); conditions: 120 g/10a active ingredient, assessed 14 days after treatment, dry weight vs untreated area
Method in brief: (§3)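 Sow 30 seeds per species (0–1 cm) into puddled, fertilized paddy soil; keep flooded ~3 cm in greenhouse. Day 7 after seeding: drop water-diluted emulsion, 120 g a.i./10 ares. Harvest 14 d post-treatment; compare dry weight with untreated pots (duplicate).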

[10] = system: Echinochloa crus-galli; test: as above; conditions: 120 g/10a active ingredient, assessed 14 days after treatment, dry weight vs untreated area
Method in brief: as §3

[11] = system: broad leaf weeds (Lindernia pyxidaria and Monochoria vaginalis); test: as above; conditions: 120 g/10a active ingredient, assessed 14 days after treatment, dry weight vs untreated area
Method in brief: as §3

[12] = system: Scirpus juncoides; test: Test Example 1: herbicidal effect test by treatment of rice paddy soil (immediately after seeding); conditions: 120 g/10a active ingredient, dry weight vs untreated area, 14 days after treatment
Method in brief: (§4)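 Values are herbicidal rates (%) derived from average plant dry weight in treated versus untreated pots 14 days after treatment, run in duplicate. Treatment was a water-diluted emulsion dropped into flooded paddy soil right after sowing, at 120 g active ingredient per 10 ares.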

[13] = system: Echinochloa crus-galli; test: as above; conditions: 120 g/10a active ingredient, dry weight vs untreated area, 14 days after treatment
Method in brief: as §4

[14] = system: broad leaf weeds (Lindernia pyxidaria and Monochoria vaginalis); test: as above; conditions: 120 g/10a active ingredient, dry weight vs untreated area, 14 days after treatment
Method in brief: as §4

Structure (SMILES) | herbicidal rate, Echinochloa crus-galli [1] [%] | herbicidal rate, southern crabgrass [2] [%] | herbicidal rate, Amaranthus viridis [3] [%] | herbicidal rate, Chenopodium album [4] [%] | herbicidal effect (herbicidal rate), Echinochloa crus-galli [5] [%] | herbicidal effect (herbicidal rate), southern crabgrass [6] [%] | herbicidal effect (herbicidal rate), Amaranthus viridis [7] [%] | herbicidal effect (herbicidal rate), Chenopodium album [8] [%] | Herbicidal rate (%) Scirpus juncoides [9] [%] | Herbicidal rate (%) Echinochloa crus-galli [10] [%] | Herbicidal rate (%) Lindernia pyxidaria [11] [%] | Herbicidal rate (%) Monochoria vaginalis [11] [%] | Herbicidal rate (%) Scirpus juncoides [12] [%] | Herbicidal rate (%) Echinochloa crus-galli [13] [%] | Herbicidal rate (%) Lindernia pyxidaria [14] [%] | Herbicidal rate (%) Monochoria vaginalis [14] [%]
Cc1c(Cc2ccccc2NS(=O)(=O)C(F)(F)F)c(=O)on1CC1CCCCC1 [Compound 1-146] | 100 | 100 | 90 | 90 | 80 | 40 | 50 | 40 | 90 | 100 | 70 | 90 | 100 | 100 | 100 | 100
CCS(=O)(=O)N(c1ccccc1Cc1c(C)n(CCSC)oc1=O)S(=O)(=O)C(F)(F)F [Compound 1-916] | 90 | 90 | 90 | 90 | 90 | 90 | 40 | 40 | 90 | 90 | 90 | 90 | 90 | 90 | 90 | 90
C=CC(C)n1oc(=O)c(Cc2ccccc2N(S(=O)(=O)C(F)(F)F)S(=O)(=O)C(F)(F)F)c1C (stereo not shown) [Compound 1-986] | 100 | 80 | 60 | 60 | 90 | 90 | 60 | 40 | 90 | 90 | 40 | 70 | 90 | 90 | 90 | 80
Cc1c(Cc2ccccc2N(C(=O)CC(C)C)S(=O)(=O)C(F)(F)F)c(=O)on1C(C)c1ccccc1 (stereo not shown) [Compound 1-359] | 90 | 90 | 90 | 90 | 90 | 90 | 40 | 40 | 90 | 90 | 90 | 90 | 90 | 90 | 90 | 90
COC(=O)N(c1ccccc1Cc1c(C)n(C(C)C)oc1=O)S(=O)(=O)C(F)(F)F [Compound 1-575] | 90 | 90 | 40 | 40 | 90 | 90 | 30 | 90 | 100 | 90 | 100 | 100 | 100 | 90 | 100 | 100
COC(=O)N(c1ccccc1Cc1c(C)n(C(C)c2ccccc2)oc1=O)S(=O)(=O)C(F)(F)F (stereo not shown) [Compound 1-598] | 90 | 90 | 90 | 90 | 90 | 90 | 40 | 40 | 90 | 90 | 90 | 90 | 90 | 90 | 90 | 90
CCOC(=O)N(c1ccccc1Cc1c(C)n(C(C)(C)C)oc1=O)S(=O)(=O)C(F)(F)F [Compound 1-604] | 90 | 90 | 90 | 90 | 90 | 90 | 40 | 40 | 90 | 90 | 90 | 90 | 90 | 90 | 90 | 90
CSCCn1oc(=O)c(Cc2ccccc2N(C(=O)OCC(C)C)S(=O)(=O)C(F)(F)F)c1C [Compound 1-676] | 90 | 90 | 90 | 90 | 90 | 90 | 40 | 40 | 90 | 90 | 90 | 90 | 90 | 90 | 90 | 90
Cc1c(Cc2ccccc2N(C(=O)C(C)C)S(=O)(=O)C(F)(F)F)c(=O)on1C(C)c1ccccc1 (stereo not shown) [Compound 1-337] | 90 | 90 | 90 | 90 | 90 | 90 | 40 | 40 | 90 | 90 | 90 | 90 | 90 | 90 | 90 | 90
CCCC(C)n1oc(=O)c(Cc2ccccc2N(C(=O)CC(C)C)S(=O)(=O)C(F)(F)F)c1C (stereo not shown) [Compound 1-356] | 90 | 90 | 90 | 60 | 90 | 80 | 60 | 60 | 90 | 100 | 60 | 70 | 90 | 100 | 90 | 60
